In test [1] the target is T1, EP2 (Homo sapiens, UniProt P43116). As to the kind of experiment: EP2 flipr functional assay. The format is cell-based. From the text: (§1) U.S. patent application Ser. No. 11/553,143, filed on Oct. 26, 2006, incorporated by reference herein, describes the methods used to obtain the in vitro data in the table below.
For test [2], the target named is T1, EP2. The test can be described thus: EP2 cAMP assay. The format is cell-based.
Source text: as §1
In general terms: Changes in cAMP serve as a functional read-out for many G protein-coupled receptors.

The target of test [3] is T1, EP2. The test can be described thus: EP2 binding (KI).
Source text: as §1

The target in test [4] is T2, EP4 (Homo sapiens, UniProt P35408). The test can be described thus: EP4 flipr functional assay. The test is classed as cell-based.
T2 sequence (P35408 whole entry): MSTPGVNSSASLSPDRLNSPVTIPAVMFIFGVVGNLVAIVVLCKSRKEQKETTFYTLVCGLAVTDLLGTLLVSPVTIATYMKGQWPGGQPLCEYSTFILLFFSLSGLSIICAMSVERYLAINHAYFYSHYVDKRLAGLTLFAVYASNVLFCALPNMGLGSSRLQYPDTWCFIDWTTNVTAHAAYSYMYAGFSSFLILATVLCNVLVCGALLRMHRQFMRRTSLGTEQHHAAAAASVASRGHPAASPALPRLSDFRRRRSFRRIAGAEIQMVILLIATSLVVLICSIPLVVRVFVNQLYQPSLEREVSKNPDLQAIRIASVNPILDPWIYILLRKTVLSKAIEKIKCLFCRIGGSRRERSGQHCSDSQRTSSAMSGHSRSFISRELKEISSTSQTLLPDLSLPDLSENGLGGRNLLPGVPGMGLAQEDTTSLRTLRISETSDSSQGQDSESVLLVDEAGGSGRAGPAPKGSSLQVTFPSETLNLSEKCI
Source text: as §1

Test [5] deals with T2, EP4. The test can be described thus: EP4 binding (KI).
Source text: as §1

Another test deals with T3, hDP (Homo sapiens, UniProt Q13258).
T3 sequence (Q13258 1-359): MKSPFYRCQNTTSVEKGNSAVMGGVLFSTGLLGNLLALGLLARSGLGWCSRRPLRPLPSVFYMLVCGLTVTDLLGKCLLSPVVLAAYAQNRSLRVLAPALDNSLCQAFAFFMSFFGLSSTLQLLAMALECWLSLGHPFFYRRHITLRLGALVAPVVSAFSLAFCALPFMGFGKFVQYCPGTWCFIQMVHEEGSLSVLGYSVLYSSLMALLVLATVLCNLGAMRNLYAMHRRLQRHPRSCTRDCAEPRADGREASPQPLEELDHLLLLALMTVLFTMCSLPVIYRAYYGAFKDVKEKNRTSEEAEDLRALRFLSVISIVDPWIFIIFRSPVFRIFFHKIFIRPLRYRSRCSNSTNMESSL
As to the kind of experiment: Other receptors functional assay, hDP. The test is classed as cell-based.
Source text: as §1

T1 sequence (P43116 whole entry): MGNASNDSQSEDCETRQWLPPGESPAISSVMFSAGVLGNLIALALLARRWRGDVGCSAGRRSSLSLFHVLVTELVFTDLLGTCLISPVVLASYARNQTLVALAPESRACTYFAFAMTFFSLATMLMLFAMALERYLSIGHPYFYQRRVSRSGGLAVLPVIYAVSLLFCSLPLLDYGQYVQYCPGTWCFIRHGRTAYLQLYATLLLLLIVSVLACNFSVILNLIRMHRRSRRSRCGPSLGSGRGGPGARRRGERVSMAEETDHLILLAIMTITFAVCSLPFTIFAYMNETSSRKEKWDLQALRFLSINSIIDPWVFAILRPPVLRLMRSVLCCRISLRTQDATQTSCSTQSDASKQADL

As for `O=C(O)c1ccc(COC[C@H]2CCC(=O)N2CCc2cc(Cl)cc(Cl)c2)s1` [(R)-5-(((1-(3,5-dichlorophenethyl)-5-oxopyrrolidin-2-yl)methoxy)methyl)thiophene-2-carboxylic acid], the values for the EC50 on EP2 [1], at EP2 [2] and at EP4 [4] were above 10 µM, 0.004 µM and above 10 µM, respectively. For the same compound, the Ki (as a rule, the equilibrium dissociation constant of an inhibitor or competing ligand from its target) at EP2 [3] was 0.159 µM; at EP4 [5], 7.99 µM.
As for `O=C(O)c1ccc(CCC[C@H]2CCC(=O)N2CCc2cc(Cl)cc(Cl)c2)s1` [(S)-5-(3-(1-(3,5-dichlorophenethyl)-5-oxopyrrolidin-2-yl)propyl)thiophene-2-carboxylic acid], the EC50 – broadly, the concentration at which the effect is half-maximal – was determined as 8.41 µM on EP2 [1], 0.0022 µM at EP2 [2] and 6.22 µM on hDP. Besides, the Ki on EP2 [3] was 0.024 µM; on EP4 [5] it was above 10 µM.

Values taken from patent US7998998B2, “Therapeutic substituted lactams” (Allergan, Inc., priority 2007, dated 2011).
